Laboratory results as given in US20250236596A1, “HYDROXYLAMINE-BASED EGFR INHIBITORS FOR TREATMENT OF CANCER WITH BRAIN METASTASES” (University of Georgia Research Foundation, Inc., priority 2022, published 2025).
Entries after “also recorded” stand apart in the source; their conditions may differ.

Experiments:
[1] = system: Caco-2 cells; assay: Caco-2 cell permeability assay; format: in vitro ADME; details: result in words
Protocol: Compounds were evaluated at Pharmaron Inc. for their ability to permeate Caco-2 cells and MDCKII-MDR1 cells. A 96-well HTS Transwell plate (Corning) was used for the Caco-2 and MDCKII-MDR1 cell seeding. Caco-2 cells were seeded at a density of 6.86×10^5 cells/mL and cultivated for 14-18 days prior to assays. MDCKII-MDR1 cells were seeded at a density of 1.56×10^6 cells/mL and cultivated for 4-8 days prior to assays. To determine the rate of drug transport in both the absorptive (apical to basolateral (A-B)) and secretory (basolateral to apical (B-A)) directions, compounds (5 μM in DMSO for Caco-2 cells, and 1 μM in DMSO for MDCKII-MDR1 cells) were added to the donor wells. Plates were incubated at 37° C. for 2 h and samples (50 μL) were taken at the beginning and end of the incubation in both the donor and acceptor wells with the assay run in duplicate (n=2). Samples were analyzed by LC-MS/MS. The apparent permeability coefficient (Papp) in units (cm/s×10^−6) was calculated using the following equation.
where, VA represents the volume (mL) in the acceptor well. Area is the surface of the membrane (0.143 cm^2 for Transwell-96 well plate) and time is the total transport time in sec.
The efflux ratio was determined using the following equation: Efflux ratio=Papp (B-A)/Papp(A-B)
Where, Papp (B-A) indicates the apparent permeability in the basolateral to apical direction, and Papp (A-B) indicates the apparent permeability in the apical to basolateral direction.

[2] = system: Ba/F3 EGFR-del E746_A750/C797S cells; assay: CellTiter-Glo viability assay, Ba/F3 EGFR-del E746_A750/C797S; format: cell-based; details: Mus musculus, BaF3, osimertinib-resistant, 72 h, read-out: antiproliferative IC50
Protocol: (§1) The A431, HCC827, SK-BR-3, ZR-75-30, AU565 and Caco-2 cell lines were obtained from ATCC. The NCI-H1975 cell line was obtained from SIBS. The NCI-H3255 cell line was obtained from CoBioer. Engineered Ba/F3 cell lines were obtained from Crown Bioscience. MCKII-MDR1 cells were obtained from the Netherlands Cancer Institute. HEK293 cells were obtained from Invitrogen. A431 cells were cultured in DMEM (Life Technologies) with 10% FBS. HCC827, NCI-H1975 and AU565 cells were cultured in RPMI1640 (Invitrogen) with 10% FBS. NCI-H3255 cells were cultured in BEGM (Lonza) with 10% FBS. Ba/F3 EGFR-del E746_A750/C797S and Ba/F3 EGFR-L858R/C797S cells were cultured in RPMI (Invitrogen) with 10% FBS. SK-BR-3 cells were cultured in McCoy's 5a (Invitrogen) with 10% FBS. ZR-75-30 cells were cultured in RPMI1640 (Invitrogen) with 20% FBS. BT474 cells were cultured in DMEM (Gibco) with 10% FBS and 10 μg/mL Insulin. Caco-2 and MCKII-MDR1 culture information is given in the permeability studies section. […]
(§2) Viability assays using A431, HCC827, NCI-H1975, NCI-H3255, Ba/F3 EGFR-del E746_A750/C797S, Ba/F3 EGFR-L858R/C797S, AU565, SK-BR-3 and ZR-75-30 cells were performed at Crown BioScience. […] Dose-response curves were generated and used to calculate the IC50 values which were calculated on GraphPad Prism from the non-linear regression equation fitted with a sigmoidal dose response and are presented as the mean±SEM.

[3] = system: A431 cell line (overexpressed EGFR wt); assay: CellTiter-Glo viability assay, A431; format: cell-based, human
Protocol: as §1, §2

[4] = system: HER2-positive breast cancer cell lines: AU565, SK-BR-3, BT474 and ZR-75-30; assay: CellTiter-Glo viability assay, HER2+ breast cancer cell lines; format: cell-based, human; details: AU565, SK-BR-3, BT474, ZR-75-30; result in words
Protocol: as §1, §2

[5] = molecular target: CYP2C19 (Homo sapiens, UniProt P33261); assay: Human CYP450 inhibition in human liver microsomes, CYP2C19; format: in vitro ADME; details: pooled human liver microsomes, probe (S)-mephenytoin (50 μM), 4′-hydroxylation
CYP2C19, sequence (P33261 whole entry, canonical isoform): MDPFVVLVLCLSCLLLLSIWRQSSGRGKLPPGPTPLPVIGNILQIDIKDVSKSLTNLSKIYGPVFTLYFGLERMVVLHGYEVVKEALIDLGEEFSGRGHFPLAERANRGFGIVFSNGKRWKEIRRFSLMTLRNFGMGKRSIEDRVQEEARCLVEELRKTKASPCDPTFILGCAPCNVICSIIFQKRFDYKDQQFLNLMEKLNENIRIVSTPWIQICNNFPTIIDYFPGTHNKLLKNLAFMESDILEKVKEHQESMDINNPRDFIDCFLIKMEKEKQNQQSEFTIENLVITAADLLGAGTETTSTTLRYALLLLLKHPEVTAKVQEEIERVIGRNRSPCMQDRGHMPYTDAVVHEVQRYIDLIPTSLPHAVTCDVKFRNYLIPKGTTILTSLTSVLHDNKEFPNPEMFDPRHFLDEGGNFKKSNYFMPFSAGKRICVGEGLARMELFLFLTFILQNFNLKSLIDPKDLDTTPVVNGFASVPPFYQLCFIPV
Protocol: Assessment of compound 15 was carried out at Pharmaron Inc. for its potential to inhibit cytochrome P450 (CYP) isoforms using human liver microsomes. The activities tested were CYP1A2-mediated phenacetin O-demethylation, CYP2C19-mediated (S)-mephenytoin 4′-hydroxylation, CYP2C9-mediated diclofenac 4′-hydroxylation, CYP2D6-mediated dextromethorphan O-demethylation and CYP3A4-mediated midazolam 1′-hydroxylation. Concentrations of substrates were phenacetin (40 μM), mephenytoin (50 μM), diclofenac (6 μM), dextromethorphan (2 μM) and midazolam (1 μM). Probe substrates phenacetin, mephenytoin and dextromethorphan were incubated at 37° for 20 min. Probe substrates diclofenac and midazolam were incubated at 37° for 5 min. […] The reactions were initiated by adding NADPH (1 mM final concentration) after a 5 min-preincubation and the assay was ran in duplicate (n=2). Samples were analyzed by UPLC-MS/MS.

[6] = system: Chinese hamster ovary (CHO-K1) cells; assay: In vitro micronucleus test; format: cell-based; details: for concentration to which negative micronucleus result is valid: cytotoxicity above
Protocol: Compound 15 was assessed for genotoxicity by Eurofins Panlabs. using the in vitro micronucleus test in Chinese hamster ovary (CHO-K1) cells as previously described.^22 Compound 15 was incubated in a 96-well plate format at varying concentrations (8, 16, 31, 62, 125, 250, 500 and 1000 μM) for 4 h at 37° C. with metabolic activation by rat liver S9 and 24 h at 37° C. without metabolic activation by rat liver S9. High content analysis and fluorescence imaging were used to detect micronuclei and compared against positive controls (cyclophosphamide (ran at 7.2 μM) and mitomycin C (ran at 0.3 μM)). Significances of the positive counts between the treatment and control were determined by one-tailed t-test with two sample equal variance.

In the case of `COc1cc2ncnc(Nc3cccc(Cl)c3F)c2cc1OCCON1CCN(C)CC1` [Compound 15, N-(3-chloro-2-fluorophenyl)-7-methoxy-6-(2-((4-methylpiperazin-1-yl)oxy)ethoxy)quinazolin-4-amine], the efflux [1] is reported as “reduced efflux ratios”, the permeability [1] is reported as “remarkably enhanced permeability” and the IC50 [2] is reported as 2.5 nM. The antiproliferative activity ([3]; A431, 72 h, result in words) was “minimal activity”, the IC50 ([3]; Homo sapiens, A-431, A431, overexpressed EGFR wt, 72 h, read-out: antiproliferative IC50) was 83 nM and the antiproliferative activity [4] was “moderate antiproliferative activity”. The IC50 at 20 min [5] was > 30 µM, the “concentration to which negative micronucleus result is valid” value ([6]; +rat liver S9) was ≤ 31 µM and the “genotoxicity in in vitro micronucleus test” value ([6]; CHO-K1, with and without rat liver S9) was “negative; also recorded: neither mutagenic nor genotoxic potential”. For the same compound, the “concentration to which negative micronucleus result is valid” value ([6]; −rat liver S9) was ≤ 8 µM.
